Measured values as given in PubChem BioAssay AID1259407 (Chemical Carcinogenesis Research Information System (CCRIS), 2018).
Calls of active or inactive are those of the source. How the calls were made is not given here.

System: CCRIS mutagenicity, Ames/micronucleus/aberration tests
Experiment: CCRIS mutagenicity studies
[1] = Test System: AMES SALMONELLA TYPHIMURIUM, Strain/Indicator: TA98, Metabolic Activation: NONE, Method: PREINCUBATION
[2] = Test System: AMES SALMONELLA TYPHIMURIUM, Strain/Indicator: TA100, Metabolic Activation: NONE, Method: PREINCUBATION
[3] = Test System: AMES SALMONELLA TYPHIMURIUM, Strain/Indicator: TA1535, Metabolic Activation: NONE, Method: PREINCUBATION
[4] = Test System: Mouse lymphoma, Strain/Indicator: L5178Y (tk+/tk-), Metabolic Activation: None, Method: Suspension/plate
[5] = Test System: Mouse lymphoma, Strain/Indicator: L5178Y (tk+/tk-), Metabolic Activation: Rat, Liver, S-9, Aroclor 1254, Method: Suspension/plate
[6] = Test System: AMES SALMONELLA TYPHIMURIUM, Strain/Indicator: TA100, Metabolic Activation: NONE, Method: STANDARD PLATE
[7] = Test System: AMES SALMONELLA TYPHIMURIUM, Strain/Indicator: TA98, Metabolic Activation: NONE, Method: STANDARD PLATE

SMILES: CCCCCCCCC/C=C/CC1CC(=O)OC1=O (centres undefined)
- mutagenic call (Test System: AMES SALMONELLA TYPHIMURIUM, Strain/Indicator: TA98, Metabolic Activation: HAMSTER, LIVER, S-9, AROCLOR 1254 (10%), Method: PREINCUBATION): inactive; negative
- mutagenic call [1]: inactive; negative
- mutagenic call (Test System: AMES SALMONELLA TYPHIMURIUM, Strain/Indicator: TA98, Metabolic Activation: RAT, LIVER, S-9, AROCLOR 1254 (10%), Method: PREINCUBATION): inactive; negative
- mutagenic call (Test System: AMES SALMONELLA TYPHIMURIUM, Strain/Indicator: TA100, Metabolic Activation: HAMSTER, LIVER, S-9, AROCLOR 1254 (10%), Method: PREINCUBATION): inactive; negative
- mutagenic call [2]: inactive; negative
- mutagenic call (Test System: AMES SALMONELLA TYPHIMURIUM, Strain/Indicator: TA100, Metabolic Activation: RAT, LIVER, S-9, AROCLOR 1254 (10%), Method: PREINCUBATION): inactive; negative
- mutagenic call (Test System: AMES SALMONELLA TYPHIMURIUM, Strain/Indicator: TA1535, Metabolic Activation: HAMSTER, LIVER, S-9, AROCLOR 1254 (10%), Method: PREINCUBATION): inactive; negative
- mutagenic call [3]: inactive; negative
- mutagenic call (Test System: AMES SALMONELLA TYPHIMURIUM, Strain/Indicator: TA1535, Metabolic Activation: RAT, LIVER, S-9, AROCLOR 1254 (10%), Method: PREINCUBATION): inactive; negative
- mutagenic call (Test System: AMES SALMONELLA TYPHIMURIUM, Strain/Indicator: TA1537, Metabolic Activation: HAMSTER, LIVER, S-9, AROCLOR 1254 (10%), Method: PREINCUBATION): inactive; negative
- mutagenic call (Test System: AMES SALMONELLA TYPHIMURIUM, Strain/Indicator: TA1537, Metabolic Activation: NONE, Method: PREINCUBATION): inactive; negative
- mutagenic call (Test System: AMES SALMONELLA TYPHIMURIUM, Strain/Indicator: TA1537, Metabolic Activation: RAT, LIVER, S-9, AROCLOR 1254 (10%), Method: PREINCUBATION): inactive; negative

SMILES: Nc1ccn([C@@H]2CS[C@H](CO)O2)c(=O)n1
- mutagenic call (Test System: Human TK6 Lymphoblastoid Cells, Strain/Indicator: HPRT, Metabolic Activation: None, Method: Standard Plate): active; positive
- mutagenic call (Test System: Human TK6 Lymphoblastoid Cells, Strain/Indicator: TK, Metabolic Activation: None, Method: Standard Plate): active; positive
- mutagenic call [4]: inactive; negative
- mutagenic call [5]: inactive; negative

SMILES: [O-][n+]1cccc2c1[C@H]1O[C@H]1C=C2
- mutagenic call [6]: inactive; negative
- mutagenic call (Test System: AMES SALMONELLA TYPHIMURIUM, Strain/Indicator: TA100, Metabolic Activation: RAT, LIVER, S-9, AROCLOR 1254 (10 OR 20%), Method: STANDARD PLATE): inactive; negative

SMILES: O=C(C(=O)c1ccccc1)c1ccccc1
- mutagenic call (Test System: AMES SALMONELLA TYPHIMURIUM, Strain/Indicator: TA98, Metabolic Activation: HAMSTER, LIVER, S-9, AROCLOR 1254, Method: STANDARD PLATE): inactive; negative
- mutagenic call [7]: inactive; negative
- mutagenic call (Test System: AMES SALMONELLA TYPHIMURIUM, Strain/Indicator: TA98, Metabolic Activation: RAT, LIVER, S-9, AROCLOR 1254, Method: STANDARD PLATE): inactive; negative
- mutagenic call (Test System: AMES SALMONELLA TYPHIMURIUM, Strain/Indicator: TA100, Metabolic Activation: HAMSTER, LIVER, S-9, AROCLOR 1254, Method: STANDARD PLATE): inactive; negative
- mutagenic call [6]: inactive; negative
- mutagenic call (Test System: AMES SALMONELLA TYPHIMURIUM, Strain/Indicator: TA100, Metabolic Activation: RAT, LIVER, S-9, AROCLOR 1254, Method: STANDARD PLATE): inactive; negative
- mutagenic call (Test System: AMES SALMONELLA TYPHIMURIUM, Strain/Indicator: TA1535, Metabolic Activation: HAMSTER, LIVER, S-9, AROCLOR 1254, Method: STANDARD PLATE): inactive; negative
- mutagenic call (Test System: AMES SALMONELLA TYPHIMURIUM, Strain/Indicator: TA1535, Metabolic Activation: NONE, Method: STANDARD PLATE): inactive; negative
- mutagenic call (Test System: AMES SALMONELLA TYPHIMURIUM, Strain/Indicator: TA1535, Metabolic Activation: RAT, LIVER, S-9, AROCLOR 1254, Method: STANDARD PLATE): inactive; negative
- mutagenic call (Test System: AMES SALMONELLA TYPHIMURIUM, Strain/Indicator: TA1537, Metabolic Activation: HAMSTER, LIVER, S-9, AROCLOR 1254, Method: STANDARD PLATE): inactive; negative
- mutagenic call (Test System: AMES SALMONELLA TYPHIMURIUM, Strain/Indicator: TA1537, Metabolic Activation: NONE, Method: STANDARD PLATE): inactive; negative
- mutagenic call (Test System: AMES SALMONELLA TYPHIMURIUM, Strain/Indicator: TA1537, Metabolic Activation: RAT, LIVER, S-9, AROCLOR 1254, Method: STANDARD PLATE): inactive; negative
- mutagenic call (Test System: AMES SALMONELLA TYPHIMURIUM, Strain/Indicator: TA1538, Metabolic Activation: HAMSTER, LIVER, S-9, AROCLOR 1254, Method: STANDARD PLATE): inactive; negative
- mutagenic call (Test System: AMES SALMONELLA TYPHIMURIUM, Strain/Indicator: TA1538, Metabolic Activation: NONE, Method: STANDARD PLATE): inactive; negative
- mutagenic call (Test System: AMES SALMONELLA TYPHIMURIUM, Strain/Indicator: TA1538, Metabolic Activation: RAT, LIVER, S-9, AROCLOR 1254, Method: STANDARD PLATE): inactive; negative
- mutagenic call [4]: inactive; inconclusive (previous evaluation negative)
- mutagenic call [5]: inactive; negative

SMILES: COc1nc(C(Cl)(Cl)Cl)c(Cl)c(OC)c1Cl
- mutagenic call [5]: active; positive

SMILES: C[C@H](CCC(=O)O)[C@H]1CC[C@H]2[C@@H]3CC[C@@H]4CC(=O)CC[C@]4(C)[C@H]3CC(=O)[C@]12C
- mutagenic call (Test System: AMES SALMONELLA TYPHIMURIUM, Strain/Indicator: TA98, Metabolic Activation: NONE, Method: FLUCTUATION TEST): inactive; negative
- mutagenic call [1]: inactive; negative
- mutagenic call (Test System: AMES SALMONELLA TYPHIMURIUM, Strain/Indicator: TA100, Metabolic Activation: NONE, Method: FLUCTUATION TEST): inactive; negative

SMILES: Nc1ccc(-c2ccc(N)c([N+](=O)[O-])c2)cc1
- mutagenic call (Test System: AMES SALMONELLA TYPHIMURIUM, Strain/Indicator: TA98(1,8-DNP6), Metabolic Activation: NONE, Method: STANDARD PLATE): active; positive
- mutagenic call (Test System: AMES SALMONELLA TYPHIMURIUM, Strain/Indicator: TA98(1,8-DNP6), Metabolic Activation: S-9, Method: STANDARD PLATE): active; positive
- mutagenic call [7]: active; positive
- mutagenic call (Test System: AMES SALMONELLA TYPHIMURIUM, Strain/Indicator: TA98, Metabolic Activation: S-9, Method: STANDARD PLATE): active; positive
- mutagenic call [6]: inactive; negative
- mutagenic call (Test System: AMES SALMONELLA TYPHIMURIUM, Strain/Indicator: TA100, Metabolic Activation: S-9, Method: STANDARD PLATE): active; positive

SMILES: OCc1ccc(F)cc1
- mutagenic call [6]: inactive; negative

SMILES: C=C(C)C(=O)OCCCCCCCC(C)C
- mutagenic call (Test System: AMES SALMONELLA TYPHIMURIUM, Strain/Indicator: TA97, Metabolic Activation: HAMSTER, LIVER, S-9, AROCLOR 1254 (10 OR 30%), Method: PREINCUBATION): inactive; negative
- mutagenic call (Test System: AMES SALMONELLA TYPHIMURIUM, Strain/Indicator: TA97, Metabolic Activation: NONE, Method: PREINCUBATION): inactive; negative
- mutagenic call (Test System: AMES SALMONELLA TYPHIMURIUM, Strain/Indicator: TA97, Metabolic Activation: RAT, LIVER, S-9, AROCLOR 1254 (10 OR 30%), Method: PREINCUBATION): inactive; negative
- mutagenic call (Test System: AMES SALMONELLA TYPHIMURIUM, Strain/Indicator: TA98, Metabolic Activation: HAMSTER, LIVER, S-9, AROCLOR 1254 (10 OR 30%), Method: PREINCUBATION): inactive; negative
- mutagenic call [1]: inactive; negative
- mutagenic call (Test System: AMES SALMONELLA TYPHIMURIUM, Strain/Indicator: TA98, Metabolic Activation: RAT, LIVER, S-9, AROCLOR 1254 (10 OR 30%), Method: PREINCUBATION): inactive; negative
- mutagenic call (Test System: AMES SALMONELLA TYPHIMURIUM, Strain/Indicator: TA100, Metabolic Activation: HAMSTER, LIVER, S-9, AROCLOR 1254 (10 OR 30%), Method: PREINCUBATION): inactive; negative
- mutagenic call [2]: inactive; negative
- mutagenic call (Test System: AMES SALMONELLA TYPHIMURIUM, Strain/Indicator: TA100, Metabolic Activation: RAT, LIVER, S-9, AROCLOR 1254 (10 OR 30%), Method: PREINCUBATION): inactive; negative
- mutagenic call (Test System: AMES SALMONELLA TYPHIMURIUM, Strain/Indicator: TA1535, Metabolic Activation: HAMSTER, LIVER, S-9, AROCLOR 1254 (10 OR 30%), Method: PREINCUBATION): inactive; negative
- mutagenic call [3]: inactive; negative
- mutagenic call (Test System: AMES SALMONELLA TYPHIMURIUM, Strain/Indicator: TA1535, Metabolic Activation: RAT, LIVER, S-9, AROCLOR 1254 (10 OR 30%), Method: PREINCUBATION): inactive; negative

SMILES: c1cc2ccc3cc4c(c5ccc(c1)c2c35)[C@H]1O[C@H]1CC4
- mutagenic call (Test System: CHINESE HAMSTER V-79, Strain/Indicator: V-79/8-AZAGUANINE, Metabolic Activation: NONE, Method: STANDARD PLATE): active; positive
